# Test system: CazF
# Format: biochemical
# Conditions: propargyl donor at MT domain; co-substrate acetoacetyl-SNAC (4)
smiles,measurement,value
"C#CC[Se+](CC[C@H](N)C(=O)O)C[C@H]1O[C@@H](n2cnc3c(N)ncnc32)[C@H](O)[C@@H]1O (stereo partly drawn) [compound 2, propargylic Se-adenosyl-L-methionine]",Km,43.6 µM

# Source: article PMC3779521 (Organic letters, 2013)
